For experiment [1], the target named is T1, D(4) dopamine receptor (Homo sapiens, UniProt P21917).
T1 sequence (P21917 whole entry): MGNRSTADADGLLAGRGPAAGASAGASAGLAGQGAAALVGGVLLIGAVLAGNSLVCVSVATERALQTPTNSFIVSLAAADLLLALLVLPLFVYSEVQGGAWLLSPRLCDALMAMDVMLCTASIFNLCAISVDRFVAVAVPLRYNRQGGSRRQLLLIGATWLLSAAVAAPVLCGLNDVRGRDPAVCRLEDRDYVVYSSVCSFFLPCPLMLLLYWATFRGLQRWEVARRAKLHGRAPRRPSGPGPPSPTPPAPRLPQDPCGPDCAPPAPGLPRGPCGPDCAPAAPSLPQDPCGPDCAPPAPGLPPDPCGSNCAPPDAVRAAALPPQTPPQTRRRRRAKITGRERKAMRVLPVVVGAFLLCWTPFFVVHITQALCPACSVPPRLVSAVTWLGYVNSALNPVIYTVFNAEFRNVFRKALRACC
The experiment in a line: DRUGMATRIX: Dopamine D4.2 radioligand binding (ligand: [3H] Spiperone). The experiment is classed as cell membranes, CHO-K1, Membrane. The conditions noted are these: cho-k1; Not Active = under 50% inhibition at 10 µM.

The nature of experiment [2]: DRUGMATRIX: Glutamate, AMPA radioligand binding (ligand: [3H] AMPA). It counts as cell membranes, Rattus norvegicus, Wistar, Cerebral cortex, Membrane. The note with it: Not Active = under 50% inhibition at 10 µM.
The target of experiment [3] is C-C chemokine receptor type 5 (Homo sapiens, UniProt P51681). The experiment is classed as cell membranes, Membrane. The conditions noted are these: hek293. Note: in other assays of this panel Not Active means under 50% inhibition at 10 µM.
C-C chemokine receptor type 5, sequence (P51681 whole entry): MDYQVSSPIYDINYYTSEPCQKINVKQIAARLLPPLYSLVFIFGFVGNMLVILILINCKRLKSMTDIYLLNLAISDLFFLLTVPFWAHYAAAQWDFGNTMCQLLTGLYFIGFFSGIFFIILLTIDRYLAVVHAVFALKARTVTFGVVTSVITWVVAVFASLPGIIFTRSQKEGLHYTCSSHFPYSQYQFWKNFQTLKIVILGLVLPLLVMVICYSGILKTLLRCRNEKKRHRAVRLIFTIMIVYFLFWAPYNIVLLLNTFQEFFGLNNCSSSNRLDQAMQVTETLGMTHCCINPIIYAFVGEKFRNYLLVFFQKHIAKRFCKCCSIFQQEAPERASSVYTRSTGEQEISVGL
The nature of experiment [4]: DRUGMATRIX: GABAA, Flunitrazepam, Central radioligand binding (ligand: [3H] Flunitrazepam). The experiment is classed as cell membranes, Rattus norvegicus, Wistar, Brain, Membrane. The conditions noted are these: Not Active = under 50% inhibition at 10 µM.
Experiment [5] is described as follows: DRUGMATRIX: Leukotriene, BLT (LTB4) radioligand binding (ligand: [3H]LTB4). The experiment is classed as cell membranes, Membrane. The note with it: u-937; Not Active = under 50% inhibition at 10 µM.
For experiment [6], the target named is Sodium-dependent noradrenaline transporter (Homo sapiens, UniProt P23975). The experiment is described as follows: DRUGMATRIX: Norepinephrine Transporter radioligand binding (ligand: [125I] RTI-55). It counts as cell membranes, MDCK, Membrane. The conditions noted are these: mdck; Not Active = under 50% inhibition at 10 µM.
Sodium-dependent noradrenaline transporter, sequence (P23975 whole entry): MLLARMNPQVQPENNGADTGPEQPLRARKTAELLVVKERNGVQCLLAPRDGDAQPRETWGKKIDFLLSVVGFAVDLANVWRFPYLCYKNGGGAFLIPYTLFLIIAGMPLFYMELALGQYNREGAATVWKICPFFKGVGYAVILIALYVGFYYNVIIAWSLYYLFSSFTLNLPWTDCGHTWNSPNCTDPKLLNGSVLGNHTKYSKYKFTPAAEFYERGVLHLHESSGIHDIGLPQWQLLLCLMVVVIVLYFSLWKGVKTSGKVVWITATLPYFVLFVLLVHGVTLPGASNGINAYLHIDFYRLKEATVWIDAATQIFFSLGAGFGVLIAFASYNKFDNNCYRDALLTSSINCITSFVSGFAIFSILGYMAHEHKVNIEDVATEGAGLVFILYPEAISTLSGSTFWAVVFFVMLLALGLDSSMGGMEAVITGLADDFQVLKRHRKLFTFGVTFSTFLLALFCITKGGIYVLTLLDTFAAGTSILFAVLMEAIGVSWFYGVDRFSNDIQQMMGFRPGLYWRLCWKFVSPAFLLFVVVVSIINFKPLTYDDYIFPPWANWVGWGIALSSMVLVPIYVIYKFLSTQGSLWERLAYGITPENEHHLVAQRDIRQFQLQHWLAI
Experiment [7] has as its target Estrogen receptor beta (Homo sapiens, UniProt Q92731). The note with it: sf9. Note: in other assays of this panel Not Active means under 50% inhibition at 10 µM.

These results are taken from ChEMBL document CHEMBL1909046, “DrugMatrix in vitro pharmacology data”.

As usually defined, the IC50 is the concentration that gives 50% inhibition. As usually defined, the Ki is the equilibrium dissociation constant of an inhibitor or competing ligand from its target.

Estrogen receptor beta, sequence (Q92731 whole entry): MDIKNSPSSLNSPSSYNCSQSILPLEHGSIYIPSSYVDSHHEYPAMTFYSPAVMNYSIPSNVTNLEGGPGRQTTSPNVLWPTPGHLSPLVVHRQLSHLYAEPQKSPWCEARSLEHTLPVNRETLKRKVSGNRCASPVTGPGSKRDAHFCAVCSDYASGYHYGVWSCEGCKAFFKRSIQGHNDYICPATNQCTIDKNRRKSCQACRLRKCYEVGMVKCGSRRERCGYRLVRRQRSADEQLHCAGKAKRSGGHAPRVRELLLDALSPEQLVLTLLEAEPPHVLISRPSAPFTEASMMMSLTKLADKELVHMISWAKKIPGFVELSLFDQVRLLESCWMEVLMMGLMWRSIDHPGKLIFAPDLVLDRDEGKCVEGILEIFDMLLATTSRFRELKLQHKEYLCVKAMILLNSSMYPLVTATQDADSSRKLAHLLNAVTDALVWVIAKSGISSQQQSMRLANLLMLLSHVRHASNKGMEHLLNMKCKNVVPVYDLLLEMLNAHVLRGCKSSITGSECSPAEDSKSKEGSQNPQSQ

With `CCOC(=O)[C@H](CCc1ccccc1)N[C@@H](C)C(=O)N1CCC[C@H]1C(=O)O`, the IC50 result in experiment [1], in experiment [2], in experiment [3], in experiment [4], in experiment [5] and in experiment [6] was “Not Active” each time. For the same molecule, the Ki entry in experiment [2], in experiment [4] and in experiment [5] was “Not Active” each time.

For `C=C1/C(=C\C=C2/CCC[C@]3(C)[C@@H]([C@H](C)CCCC(C)C)CC[C@@H]23)C[C@@H](O)C[C@@H]1O` [ALFACALCIDOL], the IC50 entry in experiment [1], in experiment [2], in experiment [3], in experiment [4], in experiment [5] and in experiment [7] was “Not Active” each time. Moreover, the inhibitory constant (Ki) result in experiment [2], in experiment [4] and in experiment [5] was “Not Active” each time.

`[N-]=[N+]=CC(=O)OC[C@H](N)C(=O)O` [AZASERINE]: the half-maximal inhibitory concentration (IC50) entry in experiment [1], in experiment [2], in experiment [3], in experiment [4], in experiment [5] and in experiment [6] was “Not Active” each time. Moreover, the inhibition constant Ki result in experiment [2], in experiment [4] and in experiment [5] was “Not Active” each time.

For the molecule `CC(C)C[C@H]1C(=O)N2CCC[C@H]2[C@]2(O)O[C@](NC(=O)[C@@H]3C=C4c5cccc6[nH]c(Br)c(c56)C[C@H]4N(C)C3)(C(C)C)C(=O)N12` [BROMOCRIPTINE], the IC50 result in experiment [1], in experiment [2], in experiment [3], in experiment [4], in experiment [5] and in experiment [6] was “Not Active” throughout. Besides, the inhibition constant Ki entry in experiment [2], in experiment [4] and in experiment [5] was “Not Active” in each case.

For `CS(=O)(=O)OCCCCOS(C)(=O)=O` [BUSULFAN], the IC50 entry in experiment [1], in experiment [2], in experiment [3], in experiment [4], in experiment [5] and in experiment [6] was “Not Active” in each case. Also, the Ki result in experiment [2], in experiment [4] and in experiment [5] was “Not Active” throughout.

Turning to `Nc1nc(Cl)nc2c1ncn2[C@H]1C[C@H](O)[C@@H](CO)O1` [CLADRIBINE], the half-inhibitory concentration (IC50) result in experiment [1], in experiment [2], in experiment [3], in experiment [4], in experiment [5] and in experiment [6] was “Not Active” throughout. Moreover, the inhibition constant Ki result in experiment [2], in experiment [4] and in experiment [5] was “Not Active” throughout.

Turning to `CC[C@H]1OC(=O)[C@H](C)[C@@H](O[C@H]2C[C@@](C)(OC)[C@@H](O)[C@H](C)O2)[C@H](C)[C@@H](O[C@@H]2O[C@H](C)C[C@H](N(C)C)[C@H]2O)[C@](C)(OC)C[C@@H](C)C(=O)[C@H](C)[C@@H](O)[C@]1(C)O` [CLARITHROMYCIN], the IC50 result in experiment [1], in experiment [2], in experiment [3], in experiment [4], in experiment [5] and in experiment [6] was “Not Active” throughout. Also, the Ki result in experiment [2], in experiment [4] and in experiment [5] was “Not Active” each time.

For `C#C[C@]1(O)CC[C@H]2[C@@H]3CCC4=Cc5oncc5C[C@]4(C)[C@H]3CC[C@@]21C` [DANAZOL], the half-inhibitory concentration (IC50) result in experiment [1] is “Not Active”; in experiment [2] it was “Not Active”; in experiment [3], “Not Active”; in experiment [4] (read-out: IC50) it was 54.3 µM; in experiment [5], “Not Active”; in experiment [7], “Not Active”. Further, the inhibition constant (Ki) entry was “Not Active” in experiment [2], 44.3 µM in experiment [4] (read-out: Ki) and “Not Active” in experiment [5].

As to `CCN[C@@H](C)Cc1cccc(C(F)(F)F)c1` [DEXFENFLURAMINE], the IC50 entry in experiment [1], in experiment [2], in experiment [3], in experiment [4], in experiment [5] and in experiment [6] was “Not Active” in each case. Also, the inhibitory constant (Ki) result in experiment [2], in experiment [4] and in experiment [5] was “Not Active” each time.

For `CN1C(=O)CN=C(c2ccccc2)c2cc(Cl)ccc21` [DIAZEPAM], the IC50 result was “Not Active” in experiment [1]; “Not Active” in experiment [2]; “Not Active” in experiment [3]; 0.0288 µM in experiment [4] (read-out: IC50); “Not Active” in experiment [5]; “Not Active” in experiment [6]. The Ki entry is “Not Active” in experiment [2], 0.0235 µM in experiment [4] (read-out: Ki) and “Not Active” in experiment [5].

Turning to `C=C(CC)C(=O)c1ccc(OCC(=O)O)c(Cl)c1Cl` [ETHACRYNIC ACID], the IC50 result in experiment [1], in experiment [2], in experiment [3], in experiment [4], in experiment [5] and in experiment [6] was “Not Active” in each case. Further, the inhibition constant (Ki) result in experiment [2], in experiment [4] and in experiment [5] was “Not Active” throughout.

Take `C#C[C@]1(O)CC[C@H]2[C@@H]3CCc4cc(O)ccc4[C@H]3CC[C@@]21C` [ETHINYL ESTRADIOL]: the 50% inhibitory concentration (IC50) entry in experiment [1], in experiment [2], in experiment [3], in experiment [4], in experiment [5] and in experiment [7] was “Not Active” throughout. For the same molecule, the inhibition constant (Ki) entry in experiment [2], in experiment [4] and in experiment [5] was “Not Active” in each case.

Take `OCCO` [ETHYLENE GLYCOL]: the IC50 result in experiment [1], in experiment [2], in experiment [3], in experiment [4], in experiment [5] and in experiment [6] was “Not Active” throughout. For the same molecule, the Ki entry in experiment [2], in experiment [4] and in experiment [5] was “Not Active” each time.

For the molecule `O=C(O)Cc1ccc(-c2ccccc2)cc1` [FELBINAC], the IC50 entry in experiment [1], in experiment [2], in experiment [3], in experiment [4], in experiment [5] and in experiment [6] was “Not Active” in each case. Moreover, the Ki result in experiment [2], in experiment [4] and in experiment [5] was “Not Active” each time.

Regarding `N=C(N)N/N=C/c1c(Cl)cccc1Cl` [GUANABENZ], the concentration for half-maximal inhibition (IC50) entry in experiment [1], in experiment [2], in experiment [3], in experiment [4], in experiment [5] and in experiment [6] was “Not Active” throughout. The inhibitory constant (Ki) entry in experiment [2], in experiment [4] and in experiment [5] was “Not Active” each time.

Consider `C/C=C\c1ccc(O)c(OC)c1` [ISOEUGENOL], for which the 50% inhibitory concentration (IC50) entry in experiment [1], in experiment [2], in experiment [3], in experiment [4], in experiment [5] and in experiment [6] was “Not Active” throughout. The Ki result in experiment [2], in experiment [4] and in experiment [5] was “Not Active” throughout.

Turning to `NC[C@H]1O[C@H](O[C@H]2[C@H](O)[C@@H](O[C@H]3O[C@H](CO)[C@@H](O)[C@H](N)[C@H]3O)[C@H](N)C[C@@H]2N)[C@H](O)[C@@H](O)[C@@H]1O` [KANAMYCIN], the half-maximal inhibitory concentration (IC50) result in experiment [1], in experiment [2], in experiment [3], in experiment [4], in experiment [5] and in experiment [6] was “Not Active” throughout. The Ki result in experiment [2], in experiment [4] and in experiment [5] was “Not Active” throughout.

`CC(=O)O[C@]1(C(C)=O)CC[C@H]2[C@@H]3C=C(C)C4=CC(=O)CC[C@]4(C)[C@H]3CC[C@@]21C` [MEGESTROL ACETATE]: the IC50 entry in experiment [1], in experiment [2], in experiment [3], in experiment [4], in experiment [5] and in experiment [6] was “Not Active” in each case. The inhibition constant Ki entry in experiment [2], in experiment [4] and in experiment [5] was “Not Active” each time.

Consider `COc1ccccc1OCC(O)COC(N)=O` (stereo unspecified) [METHOCARBAMOL], for which the IC50 entry in experiment [1], in experiment [2], in experiment [3], in experiment [4], in experiment [5] and in experiment [6] was “Not Active” each time. Also, the inhibition constant Ki result in experiment [2], in experiment [4] and in experiment [5] was “Not Active” throughout.
